Laboratory results as given in patent US4962125A, “Novel substance KS-619-1, preparation process and pharmaceutical composition” (Kyowa Hakko Kogyo, Co., Ltd., priority 1984, dated 1990).

Legend:
[1] = Acute toxicity (LD50) in mice; settings: mouse, in vivo
Procedure: The acute toxicity (LD50) of KS-619-1 in mice is more than 300 mg/kg·p.o. and more than 100 mg/kg·i.p.

Solubility = assay type: physicochemical
[2] = tested on: rabbit mesenteric arteries; test: Inhibition of KCl-induced contraction of surface-perfused, extirpated mesenteric arteries; assay type: cell-based, White bastard rabbits
Procedure: (1) Preparation of surface-perfused, extirpated mesenteric arteries
White bastard rabbits (male, 2-3 kg) were incised along the abdominal median line. […] The strips were ligated with silk yarn at both ends, and the lower end was connected to a stationary rod, whereas the upper end was connected to a […] transducer (SB-1T, product of Nippon Koden Co., Ltd.). Thus, the strips were suspended under an initial tension of 1.5 g. The preparation was kept at 37°±1° C. by means of peristaltic pump (Harvard 1210), while a gas (95% O2 and 5% CO2) was introduced therein. The surface of the preparation was perfused with a Krebs-Henseleit solution whose composition in g/l was NaCl: 6.92, KCl: 0.35, MgSO4.7H2 O: 0.29, CaCl2 : 0.28, KH2 PO4 : 0.16, NaHCO3 : 2.1 and glucose: 2.0 at a flow rate of 10 ml/min. After the preparation was stabilized for 1 to 2 hours, it was used for the experiment. Potassium chloride as a blood vessel-contracting substance was injected into flow of the perfusion solution through a cannula provided just before the preparation so that potassium chloride can have the ultimate concentration of 20 mM. The resulting contraction reaction was recorded on a polygraph (RM-45, product of Nippon Koden Co. Ltd.) in equal scales through the tension transducer. KS-619-1 was dissolved in ethanol to a concentration of 20 mg/ml, and the solution was properly diluted with a nutrient liquor and then continuously perfused from 10 minutes before the application of the contracting substance till the end of contraction reaction.
^(a) Inhibition percentage of contraction was calculated according to […]

For `CC(=O)Cc1cc2c(c(O)c1C(=O)O)-c1cc3c(c(O)c1CC2)C(=O)c1c(O)cc(O)cc1C3=O` [KS-619-1], the LD50 ([1]; ip) was greater than 100 mg/kg, the LD50 ([1]; po) was greater than 300 mg/kg and the Solubility (Solubility; in acetic acid) was “readily soluble”. For the same compound, the Solubility (Solubility; in chloroform and water) was “sparingly soluble”, the Solubility (Solubility; in methanol, ethanol, acetone, ethyl acetate and butanol) was “soluble” and the inhibition at 0.3 µg/mL ([2]; Oryctolagus cuniculus, KS-619-1 0.3 μg/ml (ultimate concentration), contracting substance potassium chloride 20 mM, read-out: Inhibition percentage of contraction) was 33%. For the same compound, the inhibition at 1 µg/mL ([2]; Oryctolagus cuniculus, KS-619-1 1.0 μg/ml (ultimate concentration), contracting substance potassium chloride 20 mM, read-out: Inhibition percentage of contraction) was 67% and the “inhibition of contraction of rabbit mesenteric arteries (in words)” value ([2]; potassium chloride 20 mM, 0.3 and 1.0 μg/ml) was “inhibited the contraction of rabbit mesenteric arteries, depending on the concentration”.
